The values that follow come from a melting point compilation (Tetko et al.; mined from patent text by program, amines drawn as free bases though some values may be those of a salt).

A word on the melting point: it is the temperature, or range, at which the solid turns liquid.

The structures appear in SMILES notation.

The compound `CCOC(=O)C1=C(C)NC(CS)=C(C(=O)OCC)C1c1cccc([N+](=O)[O-])c1` (stereo unspecified) had a melting point of 145 to 147 °C.

As to `COC(=O)C(C)NC(=O)CCc1ccc(C(=O)CCl)cc1` (stereo unspecified), the melting point was 122 to 124 °C.

Consider `O=C(c1cccc(F)c1)N1CCC2(CCn3c(nc(-c4ccncn4)cc3=O)N2)C1` (stereo unspecified), for which the melting point lay in the range of 296 to 298 °C.

For `CCCN/C(C)=C(/C#N)C(N)=S`, the melting point fell in the range of 149 to 151 °C.

`CC/C(=C\c1cccc(OCc2nc(-c3ccc(C(F)(F)F)cc3)oc2C)c1)Cn1oc(=O)[nH]c1=O` had a melting point of 124 to 125 °C.

For `Cc1cccc(NC(=O)CN2CCN(c3ccccn3)CC2)c1`, the melting point lay within 126 to 127 °C.

Take `Nc1ccnc(SCc2ccccn2)n1`: the melting point was 133 to 134 °C.

`CC(C#N)(Cn1ncc2cc([N+](=O)[O-])ccc21)NC(=O)c1ccc(OC(F)(F)F)cc1` (stereo unspecified) yielded a melting point of 203 to 205 °C.

With `O=C(CBr)NCCC(=O)ON1C(=O)CCC1=O`, the melting point lay in the range of 107 to 110 °C.

The compound `NC(=O)[C@H](Cc1cccnc1)NC(=O)OCc1ccccc1` came in with a melting point of 153 °C.

`CNc1cccc(-c2ccc(C(=O)O)c(=O)[nH]2)c1` displayed a melting point of 283 to 284 °C.

`Cc1cccc(-c2nccc(Cl)n2)c1` came in with a melting point of 74 to 75 °C.

As to `CN1Cc2ccccc2C(=O)c2c1nc1ccc(Br)cc1c2Cl`, the melting point lay within 153 to 155 °C.

`Cc1cc(C(=O)Nc2ccc(C(N)=O)cc2)on1` yielded a melting point greater than 300 °C.

As to `CCCCCCCCCCCCCCC#Cc1cccc(C=O)n1`, the melting point lay in the range of 38.5 to 40 °C.

`NC(=O)CN1CC[C@H](OCc2cc(C(F)(F)F)cc(C(F)(F)F)c2)[C@H](c2ccccc2)C1` (relative stereo): the melting point lay in the range of 123 to 125 °C.

On to `N=C(NO)c1ccc(S(N)(=O)=O)s1`, for which the melting point worked out at 189 °C.

Consider `FC(F)(F)Oc1ccc(-c2ccc(CCl)cn2)cc1`, for which the melting point lay in the range of 34 to 36 °C.

With `Nc1nc2c(s1)CCN(CC1CC1c1ccccc1)CC2` (stereo unspecified), the melting point was 109 to 113 °C.

As for `Nc1ccc(Oc2ccccc2C(=O)Oc2ccccc2)cc1`, the melting point turned out to be 102 °C.

`O=C(COCc1ccccc1)NC(C(=O)Nc1n[nH]c(=S)s1)c1ccccc1` (stereo unspecified) had a melting point of 96 to 100 °C.

Consider `O=C1c2ccccc2-c2c1c1c(c(=O)n2CCCCNS(=O)(=O)c2ccccc2)C=CCC1`, for which the melting point was 184 to 186 °C.

In turn, `CC(C)(C)C(=O)c1c[nH]c2ncc(-n3ccnc3)nc12` had a melting point of 215 to 217 °C.

`Cc1c2c(c(C)c3c1NC(C)C3)OC(C)(C)C2` (stereo unspecified) had a melting point of 87 to 88 °C.

Take `O=C(Nc1cccc2c1C(=O)c1c-2n[nH]c1-c1ccc(C(=O)NC2CCCNC2)s1)NN1CCOCC1` (stereo unspecified): the melting point is greater than 300 °C.

As for `Cc1ccc(C2c3c(cc(C)c(Br)c3C)OC2(C)C)cc1` (stereo unspecified), the melting point lay in the range of 116 to 118 °C.

In turn, `Cc1onc(-c2ccc(-c3cscn3)cc2)c1-c1ccc(S(C)(=O)=O)c(F)c1` showed a melting point of 130 °C.

In turn, `O=C(Nc1ccc2cc(CN3CCCCC3)ccc2c1)N1CCC(c2ccc(Cl)cc2)CC1` returned a melting point of 231 to 232 °C.

On to `COc1ccnc(CCc2nc3cc(-c4ccsc4)cnc3[nH]2)c1`, for which the melting point was 154 to 155 °C.

Regarding `CCN1CCCC1=NC(=O)Nc1cccc(Cl)c1`, the melting point lay in the range of 122 to 124 °C.

Take `CCN(CC)c1ccc(-c2nc(-c3cc(OC)c(O)c(OC)c3)n(C(=O)NS(=O)(=O)c3ccc(C)cc3)c2-c2ccc(N(CC)CC)cc2)cc1`: the melting point stood at 65 °C.

In the case of `C[Si](C)(C)CCOCn1c(Br)nc(C#N)c1C#N`, the melting point lay within 47 to 52 °C.

In turn, `C[C@H](c1ccccc1)N1C(=O)c2c(F)c(F)c(F)c(F)c2C1=O` registered a melting point of 95.5 to 96 °C.

Compound `COc1cc(C(=O)C(=O)O)cc([N+](=O)[O-])c1O` showed a melting point of 165 to 167 °C.

For `CSC(=NNCCCCc1ncc(Br)cc1C)NC#N`, the melting point fell in the range of 127 to 128 °C.

Consider `O=C1c2ccc(N3CCN(c4ccccc4)CC3)nc2CC2CCCCC12` (stereo unspecified), for which the melting point was in the range of 164 to 166 °C.

Consider `O=C(O)c1cc(=O)c2cc(F)ccc2[nH]1`, for which the melting point fell in the range of 206 to 210 °C.

With `CNS(=O)(=O)c1cc(C(=O)CCC(=O)OC)ccc1Cl`, the melting point was in the range of 112 to 114 °C.

The compound `COC(=O)c1ccc(OC(C)=O)c(-n2cccc2)c1` showed a melting point of 49 to 51 °C.

`CCOC(=O)c1ccc(Cn2c(C)nc3cnccc32)cc1` yielded a melting point of 164 to 166 °C.

With `CC(=O)c1cc2c(s1)CCCC1CC(=O)N(c3ccc(Cl)cc3)N=C21` (stereo unspecified), the melting point was 128 to 130 °C.

With `Brc1cnc(Sc2ncccn2)nc1`, the melting point was in the range of 178 to 180 °C.

The compound `COc1ccc(-c2cn(C)cc(-c3cccc(C(F)(F)F)c3)c2=O)cc1` registered a melting point of 160 to 162 °C.

`NP(N)(=O)NC(=O)c1cccnc1` gave a melting point of 280 to 283 °C.

`COC(=O)c1ccc(NC(=O)NCc2cccc(OC(C)=O)c2)cc1Cl` displayed a melting point of 113 to 114 °C.

Compound `CCOC(=O)C1=C(C)NC(C(OCC)OCC)=C(C(=O)OCC)C1c1ccccc1OC` (stereo unspecified) yielded a melting point of 105 to 107 °C.

In turn, `Nc1c(F)c(N2CCNCC2)c(F)c2c1c(=O)c(C(=O)O)cn2C1CC1` displayed a melting point of 257 to 259 °C.

In turn, `COC(=O)c1ccc(-c2ccc3nnn(Cc4cc5cccnc5cc4F)c3n2)cc1F` gave a melting point of 213 to 215 °C.

The compound `Oc1ccc(Cc2ccccc2)c2c1NCCC2` showed a melting point of 135 to 136 °C.

As to `COC(=O)C(Cc1ccc(O)cc1)c1cc2cc(C#N)ccc2o1` (stereo unspecified), the melting point was in the range of 110 to 111 °C.

`CN(c1cccc2cc(-c3nccs3)[nH]c12)S(=O)(=O)c1ccsc1CCl` came in with a melting point of 190 °C.

Compound `CN(C)S(=O)(=O)OCCOc1ccc(Cl)cc1` came in with a melting point of 54 to 57 °C.

Compound `NC(=S)C(c1ccccc1)c1cccnn1` (stereo unspecified) gave a melting point of 161 to 163 °C.

`CCN(CC)C(=CC1=NCCCC1)c1ccccc1` gave a melting point of 169 to 170 °C.

On to `COC(=O)C1=C(C)NC(C)=C(C(=O)OCCCCCCCCCCCN2C(=O)c3ccccc3C2=O)C1c1cccc([N+](=O)[O-])c1` (stereo unspecified), for which the melting point lay within 130 to 132 °C.

For the compound `O=C(NCCCCN1CCC(c2ccc3c(c2OCc2ccccc2)CCCC3)CC1)c1ccc(-c2ccc(C(F)(F)F)cc2)cc1`, the melting point lay within 169 to 170 °C.

In the case of `CC(=O)Nc1cccc(-c2nn3cnnc3cc2C)c1`, the melting point is 298 to 301 °C.

Regarding `O=C(O)c1cc(C(F)(F)F)ccc1Sc1ccccc1`, the melting point was in the range of 140 to 145 °C.

`CCCOc1ccccc1-c1nc2nc(NCCCO)ncc2c(=O)[nH]1` registered a melting point of 185 to 186 °C.

With `C=CC[C@@](O)(C(=O)O)c1ccccc1`, the melting point was 132 °C.

For the compound `CC(C)Cc1nn(C)c(=O)c2cn(Cc3cccc4ccccc34)nc12`, the melting point was in the range of 166 to 167 °C.

For `COC(=O)C(C)c1ccc(C(=O)c2cccs2)cc1` (stereo unspecified), the melting point was 62 °C.

`C=CCOC(=O)c1cccc(NC(=O)NC(CC(=O)OC(C)(C)C)C(=O)Nc2ccccc2C(=O)c2ccc(OC)cc2)c1` (stereo unspecified) came in with a melting point of 190 to 191 °C.

In the case of `COc1ccc(Cc2ccc3nc(N)nc(N)c3c2)cc1`, the melting point fell in the range of 207 to 209 °C.

Compound `CC1(C)OC(=O)[C@@H](CC=O)O1` displayed a melting point of 37 to 38 °C.

The compound `ON=C(CCC(CN1CCN(c2ccccn2)CC1)C(=NO)c1ccccc1)c1ccccc1` (stereo unspecified) came in with a melting point of 75 to 78 °C.

In turn, `O=C(CCc1ccccc1)Nc1ccc(C(=O)O)c(O)c1` yielded a melting point of 165 to 167 °C.

Take `N#CC(C#N)=C1N(CCCCN2CCCCC2)CCN1CCCN1CCCCC1`: the melting point lay in the range of 88 to 90 °C.

`O=c1[nH]c2ccccc2n1Cc1cccnc1` registered a melting point of 160 °C.

Take `CNC1=NN(C(=O)c2cccc([N+](=O)[O-])c2)C(C)(C)S1`: the melting point was in the range of 130 to 133 °C.

Compound `CC(=O)Oc1ccc(-c2c(C)c3ccc(OC(C)=O)cc3oc2=O)c(OC(C)=O)c1` gave a melting point of 145 °C.

The compound `Nc1nc(O)cc(NC2CC2)n1` gave a melting point of 229 °C.

The compound `CN1CCC(c2cccc3ccc(-n4cnc5ncccc54)cc23)CC1` came in with a melting point of 118 to 120 °C.

For the compound `CC(=O)c1ccc(Nc2cccc(-c3ccccn3)c2)c([N+](=O)[O-])c1`, the melting point was in the range of 195 to 196 °C.

The compound `O=C(CNc1ccccc1)Nc1ccc(F)cc1C(=O)O` gave a melting point of 194 to 195 °C.

Consider `CC(C)OC1OC(=O)CC(C)(C)C1OS(C)(=O)=O` (stereo unspecified), for which the melting point was determined as 75 °C.

For `CC(=O)Nc1ccc2c(c1)NC(=O)CC2(C)C`, the melting point lay within 273 to 278 °C.

Compound `CNC(=O)N(Cc1ccc(OCCc2nc(-c3ccccc3)oc2C)cc1)OC(=O)OC` returned a melting point of 134 to 135 °C.

`ON=C1c2ccccc2C2CC2c2ccccc21` (stereo unspecified) returned a melting point of 201 °C.

Consider `O=C(O)[C@@H](Cl)[C@H](O)c1ccccc1`, for which the melting point is 98 to 100 °C.

Compound `CC1(C)C2CC[C@@]1(N1CCCCC1)[C@H](O)C2` showed a melting point of 88.5 to 89.5 °C.

For `CC(=O)N1CCC(NC(=O)Nc2cccc(C(F)(F)F)c2)CC1`, the melting point is 212 to 217 °C.

With `[N-]=[N+]=NC1=C([C@H]2CC[C@H](c3ccc(Cl)cc3)CC2)C(=O)c2ccccc2C1=O`, the melting point was 130 to 135 °C.

Consider `COC(=O)C1=C(C)NC(C)=C(c2nc(N(C)Cc3ccccc3)no2)C1c1cccc([N+](=O)[O-])c1` (stereo unspecified), for which the melting point is 182 to 184 °C.

In turn, `CCS(=O)(=O)c1cn(C)cc(-c2cccc(C(F)(F)F)c2)c1=O` displayed a melting point of 196 to 198 °C.

Compound `Fc1ccc2sc(Cl)nc2c1` gave a melting point of 69 °C.

Turning to `O=C(N[C@@H](Cc1ccc(OCCc2coc(-c3ccccc3)n2)cc1)C(=O)O)c1ccc(Cl)cc1`, the melting point was 158 to 161 °C.

`C#CCCN1CCC(O)(Cc2ccccc2)CC1` registered a melting point of 51 to 53 °C.

With `CN(C1CCN(CC(C)(C)O)CC1)S(=O)(=O)c1ccc(Nc2nccc(Nc3ccc(F)c(F)c3)n2)cc1`, the melting point fell in the range of 234 to 235 °C.

`Cc1oc(-c2ccccc2)nc1COc1ccccc1COc1ccccc1CC(=O)O` returned a melting point of 145 to 146 °C.

Turning to `O=C(O)CCCOc1ccc(C2C3CC4CC(C3)CC2C4)cc1` (stereo unspecified), the melting point lay in the range of 163 to 165 °C.
